Patent US8920819B2, “Delivery of hydrophilic drugs” (University College London, priority 2009, dated 2014)

Assays:
[1] = Pharmacokinetics after oral administration; plasma and brain Leucine[5]-Enkephalin by radioimmunoassay; assay type: in vivo, ICR (CD-1) male out bred mice; conditions: mice
Description: ICR (CD-1) male out bred mice (18-24 g, 4 weeks old, Harlan, Oxon, UK) were used. The animals were housed in groups of 5 in plastic cages in controlled laboratory conditions with ambient temperature and humidity maintained at ˜22° C. and 60% with a 12-hour light and dark cycle (lights on at 7:00 and off at 19:00). Food and water were available ad libitum and the animals acclimatised for 5-7 days prior to any experiments in the Animal House, School of Pharmacy, University of London (London, UK). Animals were fasted overnight for oral delivery experiments. Animals were only used once and were acclimatised at the testing environment for at least 1 hour prior to testing.
Syringes were attached to 19-20G commercial gavage needles (2-3 cm long) for oral administration.
Double de-ionised filtered (0.2 μm, 33 mm Millex GP syringe driven filter unit, PES membrane for sterilisation of aqueous solutions) water was used as the disperse phase for the oral formulations. […] All formulations were prepared by vortexing (WhirliMixer, Fisherbrand) and then by probe sonication (MSE Soniprep 150) with the instrument set at 50% of its maximum output for 15 minutes on ice. The formulations were left overnight in the fridge; the administered volume was set to a maximum of 0.2 ml per mouse. The administered volume was adjusted based on the HPLC quantification of LENK and TPLENK and the body weight of each animal. The maximum volume was dosed for placebo (H2O) receiving mice.
Blood samples (0.4-0.8 mls per mouse) were collected into a chilled syringe and transferred into evacuated sterile spray coated (with tripotassium ethylenediamine tetraacetic acid—3.6 mg) medical grade PET tubes (3×75 mm K3E Vacutainer©, BD Biosciences, UK) and maintained on ice (4° C.) until centrifugation. There is no dilution effect in spray coated tubes. Plasma was obtained as the supernatant after centrifugation of blood samples at 1,600 g or 4800 rpm for 15 minutes at 4° C. with a Hermle Z323 centrifuge (Hermle Laborteschink GmbH, Germany) and was pipetted into 1.5 mL centrifuge tubes and stored at −70° C. for later use.
Brain tissue minus the cerebellum (0.25-0.35 g) recovered from mice was immediately frozen in liquid nitrogen (−80° C.) until they were homogenised. The brain weight was recorded for each individual animal. After thawing tissues were boiled for 10 minutes in 30 volumes of a mixture of 1M of acetic acid, 0.02M of hydrochloric acid and 0.1% 2-mercaptoethanol (De Ceballos et al. 1991; Ahmed et al. 1994; Wu et al. 2005). The tissues were homogenised with 80 strokes per minute for half a minute with a glass 3 mL homogeniser (Jencons-PLS, England). […]

CD-1 mice [2] = experiment: Antinociception, tail flick warm water bioassay, oral administration; assay type: in vivo, ICR (CD-1) male out bred mice; conditions: 70 mg Kg^-1 Leucine[5]-Enkephalin (L, LG) or 100 mg Kg^-1 TPLENK (PG), out of 16 mice
Description: (§1) ICR (CD-1) male out bred mice (22-28 g, 4-5 weeks old, Harlan, Oxon, UK) were used. The animals were housed in groups of 5 in plastic cages in controlled laboratory conditions with ambient temperature and humidity maintained at ˜22° C. and 60% with a 12-hour light and dark cycle (lights on at 8:00 and off at 20:00). Food and water were available ad libitum and the animals acclimatised for 5-7 days, prior to any experiments, in the Animal House, School of Pharmacy, University of London (London, UK). Animals were fasted overnight for oral delivery experiments. Animals were only used once and were acclimatised at the testing environment for at least 20 hours prior to testing. […]
Double de-ionised filtered (0.2 μm, 33 mm Millex GP syringe driven filter unit, PES membrane for sterilisation of aqueous solutions) water was used as the disperse phase. […] The administered volume was adjusted based on HPLC quantification of LENK and TPLENK and the body weight of each animal. […]
Antinociception was assessed in mice using the tail flick warm water bioassay (D'Amour and Smith 1941; Mogil et al. 1999). […] The response latency times, in centiseconds, recorded for each mouse to withdraw its tail by a “sharp flick” were recorded using a digital stopwatch capable of measuring 1/100th of a second. […] Briefly, percent antinociception was calculated as 100% ×(test latency-baseline latency)/(10 seconds−baseline latency). […]

CD-1 mice [3] = experiment: Antinociception, tail flick warm water bioassay, intravenous administration; assay type: in vivo, ICR (CD-1) male out bred mice; conditions: 14 mg Kg^-1 Leucine[5]-Enkephalin (L, LG) or 20 mg Kg^-1 TPLENK (PG), out of 8 mice
Description: as §1, with “60% respectively” for “60%”, “were” for “were fasted overnight for oral delivery experiments. Animals were”, “acclimatised in” for “acclimatised at”
Sodium Chloride 0.9% (pH 7.4) was used as the disperse phase. […] The administered volume was adjusted based on HPLC quantification of Leucine^[5]-Enkephalin and TPLENK and the body weight of each animal. […]
Antinociception was assessed in mice using the tail flick warm water bioassay (D'Amour and Smith 1941; Mogil et al. 1999). […] The response latency times, in centiseconds, recorded for each mouse to withdraw its tail by a “sharp flick” were recorded using a digital stopwatch capable of measuring 1/100th of a second. […] Mice not responding within 5 sec were excluded from further testing (Baseline cut-off=5 seconds) and the baseline latency was measured for all mice 2 hours prior testing. […]
All results were expressed as mean±standard error (i.e. SE: SD/√n). […]

[4] = HPLC quantification of the peptide content of the formulations; assay type: physicochemical; conditions: formulations for oral administration, not filtered
Source text: Formulations were not filtered.
The formulations were left overnight in the fridge and prior to intravenous administration were filtered (0.8 μm, 13 mm, Acrodisc Syringe Filter, Super Low Protein Binding Non-Pyrogenic Membrane, PALL Life Sciences). A clear filtrate was obtained for Leucine^[5]-Enkephalin and Leucine^[5]-Enkephalin and GCPQ and a translucent liquid was obtained for Palmitoylated Leucine^[5]-Enkephalin (TPLENK) and GCPQ. The administered intravenous volume of the formulations was set to a maximum of 0.2 ml per mouse. […] The maximum volume was dosed for placebo (NaCl, 0.9% w/v) receiving mice.
Polymer dispersions with Leucine^[5]-Enkephalin (LENK) or Palmitoylated Leucine^[5]-Enkephalin (TPLENK) were dissolved in mobile phase and analysed by HPLC. Samples were chromatographed over a reverse phase HPLC Sunfire C18 column (5 μm, 4.6 mm×250 mm) with a guard column attached [Waters Sunfire C18 (5 μm, 4.6 mm×10 mm)], using a Waters™ 515 HPLC pump connected to a Water™ 717 plus Autosampler with a Waters™ 486 Tunable Absorbance Detector. The mobile phase consisted of 82% 50 mM acetate buffer and 18% acetonitrile (pH 5.8). Unless otherwise indicated, samples were detected at 280 nm. The flow rate was set at 1 mL min^−1 at 35° C. and an injection volume of 40 μL was used. […] Empower software I was used for data analysis. […]

With CC(C)C[C@H](NC(=O)[C@H](Cc1ccccc1)NC(=O)CNC(=O)CNC(=O)[C@@H](N)Cc1ccc(O)cc1)C(=O)O [L, Leucine^[5]-Enkephalin] the “time of peak Leucine[5]-Enkephalin concentration in the brain tissue” value ([1]; 70 mg Kg^-1 Leucine[5]-Enkephalin (L, LG) or 100 mg Kg^-1 TPLENK (PG), brain) was 4 h, the “peak Leucine[5]-Enkephalin concentration in the brain tissue” value ([1]; 70 mg Kg^-1 Leucine[5]-Enkephalin (L, LG) or 100 mg Kg^-1 TPLENK (PG), brain, at 4 hours) was 0.695 ng/g and the “peak plasma concentration of Leucine[5]-Enkephalin” value ([1]; 70 mg Kg^-1 Leucine[5]-Enkephalin (L, LG) or 100 mg Kg^-1 TPLENK (PG), plasma) was 29.3 ng 10^−1mL^−1. For the same compound, the Tmax ([1]; male, ICR (CD-1), mouse, 70 mg Kg^-1 Leucine[5]-Enkephalin, plasma, read-out: time of peak plasma concentration of Leucine[5]-Enkephalin) was 1 h, the “analgesic responders (response 2 or more times the baseline latency)” value (CD-1 mice [2]) was 31.25% and the “mice reaching maximal possible latencies” value (CD-1 mice [2]; cut-off 10 seconds) was 6.25%. The “analgesic responders (response 2 or more times the baseline latency)” value (CD-1 mice [3]) was 37.5%, the “mice reaching maximal possible latencies” value (CD-1 mice [3]; cut-off 10 seconds) was 0% and the “peptide content of the formulations (HPLC)” value [4] was 99.9%.
